In patent publication US20220235065A1 (Epizyme, Inc., priority 2016, published 2022):
Where a name gives a salt, the structure may show the parent alone. Each block holds one compound with its values, some of them ahead of it.

Columns and labels:
[1] = system: H3K9me2 in MDA-MB-231 cells; experiment: MDA-MB-231 H3K9me2 in-cell western assay; assay type: cell-based; conditions: Homo sapiens, read-out: EHMT2 ICW (IC50 μM)
Source text: MDA-MB-231 cell line was purchased from ATCC (Manassas, Va., USA). RPMI/Glutamax medium, Penicillin-Streptomycin, Heat Inactivated Fetal Bovine Serum, and D-PBS were purchased from Life Technologies (Grand Island, N.Y., USA). Odyssey blocking buffer, 800CW goat anti-mouse IgG (H+L) antibody, and Licor Odyssey Infrared Scanner were purchased from Licor Biosciences, Lincoln, Nebr., USA. H3K9me2 mouse monoclonal antibody (Cat #1220) was purchased from Abcam (Cambridge, Mass., USA). 16% Paraformaldehyde was purchased from Electron Microscopy Sciences, Hatfield, Pa., USA). MDA-MB-231 cells were maintained in complete growth medium (RPMI supplemented with 10% v/v heat inactivated fetal bovine serum) and cultured at 37° C. under 5% CO2. UNC0638 was purchased from Sigma-Aldrich (St. Louis, Mo., USA).
General Procedure for MDA-MB-231 HEK9me2 In-Cell Western Assay.
Compound (100 nL) was added directly to 384-well cell plate. MDA-MB-231 cells (ATCC) were seeded in assay medium (RPMI/Glutamax supplemented with 10% v/v heat inactivated fetal bovine serum and 1% Penicillin/Streptomycin, Life Technologies) at a concentration of 3,000 cells per well to a Poly-D-Lysine coated 384-well cell culture plate with 50 μL per well. Plates were incubated at 37° C., 5% CO2 for 48 hours (BD Biosciences 356697). Plates were incubated at room temperature for 30 minutes and then incubated at 37° C., 5% CO2 for additional 48 hours. After the incubation, 50 μL per well of 8% paraformaldehyde (Electron Microscopy Sciences) in PBS was added to the plates and incubated at room temperature for 20 minutes. Plates were transferred to a Biotek 406 plate washer and washed 2 times with 100 μL per well of wash buffer (1×PBS containing 0.3% Triton X-100 (v/v)). Next, 60 μL per well of Odyssey blocking buffer (Licor Biosciences) was added to each plate and incubated for 1 hour at room temperature. Blocking buffer was removed and 20 μL of monoclonal primary antibody α-H3K9me2 (Abcam) diluted 1:800 in Odyssey buffer with 0.1% Tween 20 (v/v) were added and plates were incubated overnight (16 hours) at 4° C. Plates were washed 5 times with 100 μL per well of wash buffer. Next 20 μL per well of secondary antibody was added (1:500 800CW […] anti-mouse IgG (H+L) antibody (Licor Biosciences), 1:1000 DRAQ5 (Cell Signaling Technology) in Odyssey buffer with 0.1% Tween 20 (v/v)) and incubated for 1 hour at room temperature. The plates were washed 5 times with 100 μL per well wash buffer then 2 times with 100 μL per well of water. Plates were allowed to dry at room temperature then imaged on a Licor Odyssey Infrared Scanner (Licor Biosciences) which measured integrated intensity at 700 nm and 800 nm wavelengths. Both 700 and 800 channels were scanned.
% Inhibition Calculation.
First, the ratio for each well was determined by
Each plate included fourteen control wells of DMSO only treatment (Minimum Inhibition) as well as fourteen control wells (background wells) for maximum inhibition treated with control compound UNC0638 (Background wells).
The average of the ratio values for each well was calculated and used to determine the percent inhibition for each test well in the plate. Control compound was serially diluted three-fold in DMSO for a total of 10 test concentrations beginning at 1 μM. Percent inhibition was calculated as: […]
IC50 curves were generated using triplicate wells per concentration of compound. The IC50 is the concentration of compound at which measured methylation is inhibited by 50% as interpolated from the dose response curves. IC50 values were calculated using a non-linear regression (variable slope-four parameter fit model) with by the following formula
where Top is fixed at 100% and Bottom is fixed to 0%, [I]=concentration of inhibitor, IC50=half maximal inhibitory concentration and n=Hill Slope.

[2] = target: T1, EHMT1 (Homo sapiens, UniProt Q9H9B1); experiment: EHMT1 PEP (EHMT1 peptide enzyme assay); assay type: biochemical; conditions: peptide substrate enzyme assay
T1 sequence (Q9H9B1 1-1298): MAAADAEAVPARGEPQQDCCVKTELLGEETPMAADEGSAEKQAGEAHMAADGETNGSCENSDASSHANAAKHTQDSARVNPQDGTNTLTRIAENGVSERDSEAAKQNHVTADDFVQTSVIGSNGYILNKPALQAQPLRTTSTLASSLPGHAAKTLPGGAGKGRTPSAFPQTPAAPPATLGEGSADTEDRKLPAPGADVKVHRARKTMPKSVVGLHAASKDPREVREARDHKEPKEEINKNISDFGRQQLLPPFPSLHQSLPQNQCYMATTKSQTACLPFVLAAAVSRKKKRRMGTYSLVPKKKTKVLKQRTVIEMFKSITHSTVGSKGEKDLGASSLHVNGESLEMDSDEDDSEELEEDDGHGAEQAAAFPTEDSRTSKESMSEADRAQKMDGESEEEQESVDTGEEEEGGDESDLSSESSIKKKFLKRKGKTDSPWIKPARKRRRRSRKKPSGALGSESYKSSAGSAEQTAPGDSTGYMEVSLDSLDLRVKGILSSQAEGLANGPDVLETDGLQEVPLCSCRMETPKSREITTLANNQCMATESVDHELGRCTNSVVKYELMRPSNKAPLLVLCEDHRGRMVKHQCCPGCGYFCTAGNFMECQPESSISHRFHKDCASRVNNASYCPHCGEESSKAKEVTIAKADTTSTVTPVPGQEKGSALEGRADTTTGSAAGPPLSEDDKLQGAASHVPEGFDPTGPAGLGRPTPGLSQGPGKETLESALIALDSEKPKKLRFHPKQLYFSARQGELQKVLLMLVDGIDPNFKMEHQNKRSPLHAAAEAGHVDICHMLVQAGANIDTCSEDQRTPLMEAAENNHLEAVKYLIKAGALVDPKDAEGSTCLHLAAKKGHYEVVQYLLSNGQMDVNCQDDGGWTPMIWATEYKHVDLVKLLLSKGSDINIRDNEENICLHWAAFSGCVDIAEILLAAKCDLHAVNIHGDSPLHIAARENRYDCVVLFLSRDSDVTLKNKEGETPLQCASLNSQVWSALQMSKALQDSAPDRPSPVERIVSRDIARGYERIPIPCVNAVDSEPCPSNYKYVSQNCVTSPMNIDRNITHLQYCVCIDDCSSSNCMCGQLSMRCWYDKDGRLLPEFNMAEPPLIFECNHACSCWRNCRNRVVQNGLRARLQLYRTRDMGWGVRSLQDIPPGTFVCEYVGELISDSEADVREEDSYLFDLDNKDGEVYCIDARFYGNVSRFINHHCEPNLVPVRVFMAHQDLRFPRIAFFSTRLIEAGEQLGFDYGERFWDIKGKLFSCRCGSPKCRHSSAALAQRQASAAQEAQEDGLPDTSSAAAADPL

SMILES: CNc1cc(C)nc(Nc2ccc(C)c(C(=O)Nc3cccnc3)c2)n1 [Compound 239]
IC50 [1]: > 10 µM | IC50 [2]: > 10 µM

SMILES: CNc1cc(C)nc(Nc2ccc(OC)c(-c3cc4[nH]ccc4cn3)c2OC)n1 [Compound 220]
IC50 [1]: > 10 µM | IC50 [2]: 1 to 10 µM

SMILES: CNc1cc(C)nc(Nc2ccc(OC)c(-c3nc4n(n3)CCN(C)C4)c2)n1 [Compound 9]
IC50 [1]: > 10 µM | IC50 [2]: > 10 µM

SMILES: CNc1cc(C)nc(Nc2ccc(OC)c(-c3nnc(C)[nH]3)c2)n1 [Compound 11]
IC50 [1]: > 10 µM | IC50 [2]: > 10 µM

SMILES: COc1cc(NC2CCNCC2)ccc1-c1cc2[nH]ccc2cn1 [Compound 231]
IC50 [1]: > 10 µM | IC50 [2]: 1 to 10 µM

SMILES: CNc1cc(C)nc(Nc2ccc(Cl)c(C(=O)Nc3cccnc3)c2)n1 [Compound 240]
IC50 [1]: > 10 µM | IC50 [2]: 1 to 10 µM

SMILES: CNc1nc2cc(-c3cc4[nH]ccc4cn3)c(OC)cc2n1C [Compound 209]
IC50 [1]: > 10 µM | IC50 [2]: 0.1 to 1 µM

SMILES: CNc1cc(C)nc(Nc2ccc(OC)c(-c3ccc4cc(C)[nH]c4c3)c2)n1 [Compound 156]
IC50 [1]: 1 to 10 µM | IC50 [2]: > 10 µM

SMILES: CNCc1cnn(-c2cc3nc(NC)n(C)c3cc2OC)c1 [Compound 179]
IC50 [1]: 1 to 10 µM | IC50 [2]: 0.1 to 1 µM

SMILES: CCNCc1cn(-c2cc(Nc3nccc(NC)n3)ccc2OC)nn1 [Compound 172]
IC50 [1]: 1 to 10 µM | IC50 [2]: 0.1 to 1 µM

SMILES: CNc1cc(C)nc(Nc2cccc(C(=O)Nc3cccnc3)c2)n1 [Compound 242]
IC50 [1]: > 10 µM | IC50 [2]: > 10 µM

SMILES: CNc1nc2cc(-n3cc(CN(C)C)nn3)c(OC)cc2n1C [Compound 163]
IC50 [1]: 1 to 10 µM | IC50 [2]: 1 to 10 µM

SMILES: CNc1ccnc(Nc2ccc(OC)c(-n3cc(C4CC4)nn3)c2)n1 [Compound 176]
IC50 [1]: 1 to 10 µM | IC50 [2]: 0.1 to 1 µM

SMILES: CNc1cc(C)nc(Nc2ccc(OC)c(-c3cc(C4CC4)cnn3)c2)n1 [Compound 233]
IC50 [1]: 1 to 10 µM | IC50 [2]: 0.1 to 1 µM

SMILES: CNc1ccnc(Nc2ccc(OC)c(-n3cc(CNC4CCC4)nn3)c2)n1 [Compound 191]
IC50 [1]: > 10 µM | IC50 [2]: 0.1 to 1 µM

SMILES: CNc1cc(-c2cc(Nc3nc(C)cc(NC)n3)ccc2OC)nc(C)n1 [Compound 230]
IC50 [1]: 1 to 10 µM | IC50 [2]: < 0.1 µM

SMILES: CNc1cc(C)nc(Nc2ccc(OC)c(-c3cn4c(n3)CNCC4)c2)n1 [Compound 7]
IC50 [1]: 1 to 10 µM | IC50 [2]: 0.1 to 1 µM

SMILES: CNc1ccnc(Nc2ccc(OC)c(-n3cc(C4COC4)nn3)c2)n1 [Compound 177]
IC50 [1]: > 10 µM | IC50 [2]: 1 to 10 µM

SMILES: COc1cc2c(cc1-n1cc([C@@H]3CCCN3)nn1)N=C(N)C21CCC1 [Compound 195]
IC50 [1]: 1 to 10 µM | IC50 [2]: 0.1 to 1 µM

SMILES: CNc1cc(C)nc(Nc2ccc(OC)c(-c3nc4n(n3)CCNC4)c2)n1 [Compound 8, 2-N-(4-methoxy-3-[4H,5H,6H,7H-[1,2,4]triazolo[1,5-a]pyrazin-2-yl]phenyl)-4-N,6-dimethylpyrimidine-2,4-diamine hydrochloride]
IC50 [1]: > 10 µM | IC50 [2]: 1 to 10 µM

SMILES: CNc1cc(C)nc(Nc2cnc(OC)c(-c3cc4ccncc4[nH]3)c2)n1 [Compound 204]
IC50 [1]: > 10 µM | IC50 [2]: 1 to 10 µM

More lines, now with the values ahead:

IC50 [1]: 1 to 10 µM | IC50 [2]: 0.1 to 1 µM
SMILES: CCNCc1cnn(-c2cc(Nc3nccc(NC)n3)ccc2OC)c1 [Compound 185]

IC50 [1]: 1 to 10 µM | IC50 [2]: 0.1 to 1 µM
SMILES: CNc1cc(C)nc(Nc2cnc(OC)c(-n3cc(C4CCCN4)cn3)c2)n1 (centres unmarked) [Compound 188]

IC50 [1]: 1 to 10 µM | IC50 [2]: < 0.1 µM
SMILES: CNc1cc(C)nc(Nc2ccc(OC)c(-c3[nH]c4cnccc4c3F)c2)n1 [Compound 199]

IC50 [1]: 0.1 to 1 µM | IC50 [2]: < 0.1 µM
SMILES: CNc1cc(C)nc(Nc2ccc(OC)c(-n3cc([C@@H]4CCCN4)nn3)c2)n1 [Compound 212, (S)—N2-(4-methoxy-3-(4-(pyrrolidin-2-yl)-1H-1,2,3-triazol-1-yl)phenyl)-N4,6-dimethylpyrimidine-2,4-diamine]

IC50 [1]: 0.1 to 1 µM | IC50 [2]: < 0.1 µM
SMILES: CNCc1cnn(-c2cc3c(cc2OC)C2(CCC2)C(N)=N3)c1 [Compound 186]

IC50 [1]: 1 to 10 µM | IC50 [2]: < 0.1 µM
SMILES: CNc1ccnc(Nc2ccc(OC)c(-n3cc(CNCC4CC4)nn3)c2)n1 [Compound 173]

IC50 [1]: 1 to 10 µM | IC50 [2]: < 0.1 µM
SMILES: CNc1cc(-c2cc(Nc3nc(C)cc(NC)n3)ccc2OC)ncn1 [Compound 225]

IC50 [1]: 0.1 to 1 µM | IC50 [2]: 0.1 to 1 µM
SMILES: CNc1cc(C)nc(Nc2ccc(OC)c(-n3ncc4c3CCN(C)C4)c2)n1 [Compound 10]

IC50 [1]: 1 to 10 µM | IC50 [2]: 0.1 to 1 µM
SMILES: CNc1cc(C)nc(Nc2ccc(OC)c(-n3cc4ccccc4n3)c2)n1 [Compound 146]

IC50 [1]: < 0.1 µM | IC50 [2]: < 0.1 µM
SMILES: CNC1=Nc2cc(-c3[nH]c4cnccc4c3C)c(OC)cc2C12CCC2 [Compound 238, 5′-methoxy-N-methyl-6′-(3-methyl-1H-pyrrolo[2,3-c]pyridin-2-yl)spiro[cyclobutane-1,3′-indol]-2′-amine]

IC50 [1]: 0.1 to 1 µM | IC50 [2]: < 0.1 µM
SMILES: CNc1cc(C)nc(Nc2ccc(OC)c(-c3cc4[nH]ccc4c(C)n3)c2)n1 [Compound 237]

IC50 [1]: 0.1 to 1 µM | IC50 [2]: < 0.1 µM
SMILES: CNc1cc(C)nc(Nc2ccc(C)c(-c3cc4ccncc4[nH]3)c2)n1 [Compound 241]

IC50 [1]: 0.1 to 1 µM | IC50 [2]: < 0.1 µM
SMILES: COc1cc2c(cc1-n1cc([C@H]3CCCN3)nn1)N=C(N)C21CCC1 [Compound 193]

IC50 [1]: 0.1 to 1 µM | IC50 [2]: < 0.1 µM
SMILES: CNC1=Nc2cc(-c3cc4[nH]ccc4cn3)c(OC)cc2C12CCC2 [Compound 214]

IC50 [1]: 0.1 to 1 µM | IC50 [2]: < 0.1 µM
SMILES: CNc1cc(C)nc(Nc2ccc(OC)c(-c3cc4[nH]ccc4cn3)c2F)n1 [Compound 221]

IC50 [1]: 0.1 to 1 µM | IC50 [2]: < 0.1 µM
SMILES: CNc1cc(C)nc(Nc2ccc(OC)c(-c3cc4[nH]cc(F)c4cn3)c2)n1 [Compound 229]
